Target: T1, BRD4_2 (Homo sapiens, UniProt O60885)
T1 construct: contains two tandem bromodomains (BrD1 and BrD2)
Assay: Fluorescence anisotropy binding assay (competition with FITC-labeled MS417 probe), BRD4_2
Conditions: FITC-MS417 probe 80 nM, PBS pH 7.4, 1 hour, 25° C.

Row | Structure (SMILES) | IC50
1 | COC(=O)c1cc(Cl)ccc1NC1=C(C)C(=O)CC1 [Example 01-20, methyl 5-chloro-2-((2-methyl-3-oxocyclopent-1-en-1-yl)amino)benzoate] | > 10 µM
2 | COC(=O)c1ccc(NC2=C(C)C(=O)CC2)c(F)c1 [Example 01-21, methyl 3-fluoro-4((2-methyl-3-oxocyclopent-1-en-1-yl)amino)benzoate] | > 10 µM
3 | COC(=O)c1ccc(NC2=C(C)C(=O)CC2)c(Br)c1 [Example 01-22, methyl 3-bromo-4((2-methyl-3-oxocyclopent-1-en-1-yl)amino)benzoate] | 1 to 10 µM
4 | CC1=C(Nc2cccc(Cl)c2C(=O)O)CCC1=O [Example 01-23, 2-chloro-6((2-methyl-3-oxocyclopent-1-en-1-yl)amino)benzoic acid] | > 10 µM
5 | COC(=O)c1ccc(Cl)cc1NC1=C(C)C(=O)CC1 [Example 01-24, methyl 4-chloro-2-((2-methyl-3-oxocyclopent-1-en-1-yl)amino)benzoate] | > 10 µM
6 | CC1=C(Nc2cc(C(=O)O)ccc2Cl)CCC1=O [Example 01-25, 4-chloro-3((2-methyl-3-oxocyclopent-1-en-1-yl)amino)benzoic acid] | > 10 µM
7 | CC1=C(Nc2cccc3ccccc23)CCC1=O [Example 01-26, 2-methyl-3-(naphthalen-1-ylamino)cyclopent-2-enone] | 1 to 10 µM
8 | CC1=C(Nc2ccc3ccccc3c2)CCC1=O [Example 01-27, 2-methyl-3-(naphthalen-2-ylamino)cyclopent-2-enone] | 1 to 10 µM
9 | CC1=C(Nc2ccccn2)CCC1=O [Example 01-28, 2-methyl-3-(pyridin-2-ylamino)cyclopent-2-enone] | > 10 µM
10 | CC1=C(Nc2cccnc2)CCC1=O [Example 01-29, 2-methyl-3-(pyridin-3-ylamino)cyclopent-2-enone] | > 10 µM
11 | CC1=C(Nc2ccncc2)CCC1=O [Example 01-30, 2-methyl-3-(pyridin-4-ylamino)cyclopent-2-enone] | 1 to 10 µM
12 | CC1=C(Nc2ccc(C(N)=O)cc2)CCCC1=O [Example 01-35, 4((2-methyl-3-oxocyclohex-1-en-1-yl)amino)benzamide] | 1 to 10 µM
13 | CC1=C(Nc2cccc(CC(=O)O)c2)CCCC1=O [Example 01-37, 2-(3((2-methyl-3-oxocyclohex-1-en-1-yl)amino)phenyl)acetic acid] | > 10 µM
14 | CC(=O)Nc1ccc(Cl)c(NC2=C(C)C(=O)CC2)c1 [Example 01-42, N-(4-chloro-3-((2-methyl-3-oxocyclopent-1-en-1-yl)amino)phenyl)-acetamide] | 1 to 10 µM

Tested on: not given
Assay: not given
Conditions: not given

Row | Structure (SMILES) | melting point
15 | COC(=O)c1cc(Cl)ccc1NC1=C(C)C(=O)CC1 [Example 01-20, methyl 5-chloro-2-((2-methyl-3-oxocyclopent-1-en-1-yl)amino)benzoate] | 162 to 165 °C
16 | COC(=O)c1ccc(NC2=C(C)C(=O)CC2)c(F)c1 [Example 01-21, methyl 3-fluoro-4((2-methyl-3-oxocyclopent-1-en-1-yl)amino)benzoate] | 198 to 201 °C
17 | COC(=O)c1ccc(NC2=C(C)C(=O)CC2)c(Br)c1 [Example 01-22, methyl 3-bromo-4((2-methyl-3-oxocyclopent-1-en-1-yl)amino)benzoate] | 155 to 158 °C
18 | CC1=C(Nc2cccc(Cl)c2C(=O)O)CCC1=O [Example 01-23, 2-chloro-6((2-methyl-3-oxocyclopent-1-en-1-yl)amino)benzoic acid] | 277 to 280 °C
19 | COC(=O)c1ccc(Cl)cc1NC1=C(C)C(=O)CC1 [Example 01-24, methyl 4-chloro-2-((2-methyl-3-oxocyclopent-1-en-1-yl)amino)benzoate] | 167 to 170 °C
20 | CC1=C(Nc2cc(C(=O)O)ccc2Cl)CCC1=O [Example 01-25, 4-chloro-3((2-methyl-3-oxocyclopent-1-en-1-yl)amino)benzoic acid] | 272 to 275 °C
21 | CC1=C(Nc2cccc3ccccc23)CCC1=O [Example 01-26, 2-methyl-3-(naphthalen-1-ylamino)cyclopent-2-enone] | 166 to 168 °C
22 | CC1=C(Nc2ccc3ccccc3c2)CCC1=O [Example 01-27, 2-methyl-3-(naphthalen-2-ylamino)cyclopent-2-enone] | 248 to 250 °C
23 | CC1=C(Nc2ccccn2)CCC1=O [Example 01-28, 2-methyl-3-(pyridin-2-ylamino)cyclopent-2-enone] | 163 to 165 °C
24 | CC1=C(Nc2cccnc2)CCC1=O [Example 01-29, 2-methyl-3-(pyridin-3-ylamino)cyclopent-2-enone] | 133 to 135 °C
25 | CC1=C(Nc2ccncc2)CCC1=O [Example 01-30, 2-methyl-3-(pyridin-4-ylamino)cyclopent-2-enone] | 203 to 205 °C
26 | CC1=C(Nc2ccc(C(N)=O)cc2)CCCC1=O [Example 01-35, 4((2-methyl-3-oxocyclohex-1-en-1-yl)amino)benzamide] | 221 to 223 °C
27 | CC1=C(Nc2cccc(CC(=O)O)c2)CCCC1=O [Example 01-37, 2-(3((2-methyl-3-oxocyclohex-1-en-1-yl)amino)phenyl)acetic acid] | 203 to 207 °C
28 | CC(=O)Nc1ccc(Cl)c(NC2=C(C)C(=O)CC2)c1 [Example 01-42, N-(4-chloro-3-((2-methyl-3-oxocyclopent-1-en-1-yl)amino)phenyl)-acetamide] | 265 to 268 °C

Target: T2, first bromodomain (BrD1) of human BRD4 (Homo sapiens, UniProt O60885)
T2 construct: the first bromodomain (BrD1) of human BRD4; poly-His (cleaved yes); made in house
Assay: Fluorescence anisotropy binding assay (competition with FITC-labeled MS417 probe)
Conditions: FITC-MS417 probe 80 nM, PBS pH 7.4, 1 hour, 25° C., read-out: BRD4_1 IC50
Outline: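 BRD4 BrD1 (His tag removed by thrombin) at 0.25 to 1 μM competed against 80 nM FITC-labeled MS417 in PBS pH 7.4. Anisotropy read after 1 hour at 25° C. Ki derived from fitted IC50 by Nikolovska-Coleska-corrected Cheng-Prusoff equation, one-site competitive model.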

Row | Structure (SMILES) | IC50
29 | COC(=O)c1cc(Cl)ccc1NC1=C(C)C(=O)CC1 [Example 01-20, methyl 5-chloro-2-((2-methyl-3-oxocyclopent-1-en-1-yl)amino)benzoate] | > 10 µM
30 | COC(=O)c1ccc(NC2=C(C)C(=O)CC2)c(F)c1 [Example 01-21, methyl 3-fluoro-4((2-methyl-3-oxocyclopent-1-en-1-yl)amino)benzoate] | 1 to 10 µM
31 | COC(=O)c1ccc(NC2=C(C)C(=O)CC2)c(Br)c1 [Example 01-22, methyl 3-bromo-4((2-methyl-3-oxocyclopent-1-en-1-yl)amino)benzoate] | 1 to 10 µM
32 | CC1=C(Nc2cccc(Cl)c2C(=O)O)CCC1=O [Example 01-23, 2-chloro-6((2-methyl-3-oxocyclopent-1-en-1-yl)amino)benzoic acid] | > 10 µM
33 | COC(=O)c1ccc(Cl)cc1NC1=C(C)C(=O)CC1 [Example 01-24, methyl 4-chloro-2-((2-methyl-3-oxocyclopent-1-en-1-yl)amino)benzoate] | 1 to 10 µM
34 | CC1=C(Nc2cc(C(=O)O)ccc2Cl)CCC1=O [Example 01-25, 4-chloro-3((2-methyl-3-oxocyclopent-1-en-1-yl)amino)benzoic acid] | 1 to 10 µM
35 | CC1=C(Nc2cccc3ccccc23)CCC1=O [Example 01-26, 2-methyl-3-(naphthalen-1-ylamino)cyclopent-2-enone] | 1 to 10 µM
36 | CC1=C(Nc2ccc3ccccc3c2)CCC1=O [Example 01-27, 2-methyl-3-(naphthalen-2-ylamino)cyclopent-2-enone] | 1 to 10 µM
37 | CC1=C(Nc2ccccn2)CCC1=O [Example 01-28, 2-methyl-3-(pyridin-2-ylamino)cyclopent-2-enone] | > 10 µM
38 | CC1=C(Nc2cccnc2)CCC1=O [Example 01-29, 2-methyl-3-(pyridin-3-ylamino)cyclopent-2-enone] | > 10 µM
39 | CC1=C(Nc2ccncc2)CCC1=O [Example 01-30, 2-methyl-3-(pyridin-4-ylamino)cyclopent-2-enone] | 1 to 10 µM
40 | CC1=C(Nc2ccc(C(N)=O)cc2)CCCC1=O [Example 01-35, 4((2-methyl-3-oxocyclohex-1-en-1-yl)amino)benzamide] | 1 to 10 µM
41 | CC1=C(Nc2cccc(CC(=O)O)c2)CCCC1=O [Example 01-37, 2-(3((2-methyl-3-oxocyclohex-1-en-1-yl)amino)phenyl)acetic acid] | > 10 µM
42 | CC(=O)Nc1ccc(Cl)c(NC2=C(C)C(=O)CC2)c1 [Example 01-42, N-(4-chloro-3-((2-methyl-3-oxocyclopent-1-en-1-yl)amino)phenyl)-acetamide] | < 1 µM
